Assay results published in ChEMBL document CHEMBL1130454, “Synthesis and antirheumatic activity of novel tetrahydroquinoline-8-carboxylic acid derivatives” (1997).

Experiments:
Assay type in all cases: functional
Rattus norvegicus [1] = experiment: Tested for edema suppression rate with respect to control value in adjuvant arthritis rat at a dose of 50 mg/Kg; Range = 31-40%
Rattus norvegicus [2] = experiment: Tested for edema suppression rate with respect to control value in adjuvant arthritis rat at a dose of 50 mg/Kg; Range = >50%
Rattus norvegicus [3] = experiment: Tested for edema suppression rate with respect to control value in adjuvant arthritis rat; Range = 0-20%
Rattus norvegicus [4] = experiment: Tested for edema suppression rate with respect to control value in adjuvant arthritis rat at a dose of 10 mg/Kg; Range = 31-40%
Rattus norvegicus [5] = experiment: Tested for edema suppression rate with respect to control value in adjuvant arthritis rat at a dose of 10 mg/Kg; Range = 21-30%
Rattus norvegicus [6] = experiment: Tested for edema suppression rate with respect to control value in adjuvant arthritis rat at a dose of 10 mg/Kg; Range = 41-50%
Rattus norvegicus [7] = experiment: Tested for edema suppression rate with respect to control value in adjuvant arthritis rat at a dose of 50 mg/Kg; Range = 21-30%

CNc1ccc([N+](=O)[O-])cc1C(=O)O
inhibition in vivo at 50 mg/kg (Rattus norvegicus [1]): 40%

O=C(O)c1cc([N+](=O)[O-])cc2c1NCCC2
inhibition in vivo at 50 mg/kg (Rattus norvegicus [2]): > 50%

O=C(O)c1cc([N+](=O)[O-])cc2c1NCC2
Inhibition (Rattus norvegicus [3]): 20%

O=C(O)c1cc2c(c(C(=O)O)c1)NCCC2
inhibition in vivo at 10 mg/kg (Rattus norvegicus [4]): 40%

O=C(O)c1cccc2c1NC(c1ccccc1)CO2 (stereo unspecified)
inhibition in vivo at 10 mg/kg (Rattus norvegicus [4]): 40%

O=C(O)c1cc2c(c(C(=O)O)c1)NCCS2
Inhibition (Rattus norvegicus [3]): 20%

O=C(O)c1cc([N+](=O)[O-])ccc1NCc1ccccc1
Inhibition (Rattus norvegicus [3]): 20%

Nc1ccc(Cl)cc1C(=O)O
Inhibition (Rattus norvegicus [3]): 20%

O=C(O)c1cc([N+](=O)[O-])cc2c1NCCCC2
inhibition in vivo at 10 mg/kg (Rattus norvegicus [5]): 30%

CS(=O)(=O)Nc1cc2c(c(C(=O)O)c1)NCCCC2
inhibition in vivo at 50 mg/kg (Rattus norvegicus [1]): 40%

O=C(O)Cc1cc2c(c(C(=O)O)c1)NCCC2
inhibition in vivo at 10 mg/kg (Rattus norvegicus [6]): 50%

O=C(O)c1cc([N+](=O)[O-])cc2c1NC(c1ccccc1)CC2 (stereo unspecified)
Inhibition (Rattus norvegicus [3]): 20%

O=C(O)c1cc([N+](=O)[O-])cc2c1NCCO2
Inhibition (Rattus norvegicus [3]): 20%

O=C(O)c1cc(Br)c(Cl)c2c1NCCO2
inhibition in vivo at 50 mg/kg (Rattus norvegicus [7]): 30%

O=C(O)c1cc(Cl)cc2c1NCCS2
Inhibition (Rattus norvegicus [3]): 20%

Nc1ccc([N+](=O)[O-])cc1C(=O)O
inhibition in vivo at 10 mg/kg (Rattus norvegicus [5]): 30%
